Measurements as given in EP4603105A1, “PHARMACEUTICAL COMPOSITION CONTAINING CYCLIC COMPOUND HAVING SELECTIVE KRAS INHIBITORY EFFECT AGAINST HRAS AND NRAS” (CHUGAI SEIYAKU KABUSHIKI KAISHA, priority 2022, dated 2024).

Legend:
[1] = tested on: human lung cancer strain NCI-H441; type: cell-based
In short: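 Readout: […] after the ATP-based reagent. Compound: serial dilutions in dimethyl sulfoxide.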

[2] = molecular target: HRAS wild-type protein (Homo sapiens, UniProt P01112); assay: Binding to HRAS by surface plasmon resonance (SPR), KD and KD ratio to KRAS; conditions: ratio of KD for HRAS wild-type protein to KD for KRAS
In short: (§1)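 GDP-loaded biotinylated Avi-tag RAS proteins (E. coli-expressed) captured on a Biotin CAPture chip at ~100–300 RU; single-cycle kinetics at 30°C, 100 µL/min, 75 s injections of rising compound concentrations. HBS pH 7.4 running buffer with 1 mM DTT, 10 mM MgCl2, 10 µM GDP, 4% DMSO. KD from 1:1 binding fit.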

[3] = molecular target: GDP-bound KRAS wild-type protein (Homo sapiens, UniProt P01116); assay: Binding to KRAS by surface plasmon resonance (SPR), dissociation constant KD; conditions: 1:1 binding model
In short: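 Read-out is KD from 1:1 fitting of single-cycle kinetics sensorgrams, blank-cycle and reference-surface corrected. Proteins were GDP-loaded, biotinylated Avi-fusions freshly captured each cycle at roughly 100–300 RU. Runs were at 30°C in HBS pH 7.4 with MgCl2, GDP and 4% DMSO.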

[4] = molecular target: GDP-bound NRAS wild-type protein (Homo sapiens, UniProt P01111); assay: Binding to NRAS by surface plasmon resonance (SPR), KD and KD ratio to KRAS; conditions: ratio of KD for GDP-bound NRAS wild-type protein to KD for KRAS
In short: as §1

Chain of GDP-bound KRAS wild-type protein (P01116 1-188 isoform P01116-2): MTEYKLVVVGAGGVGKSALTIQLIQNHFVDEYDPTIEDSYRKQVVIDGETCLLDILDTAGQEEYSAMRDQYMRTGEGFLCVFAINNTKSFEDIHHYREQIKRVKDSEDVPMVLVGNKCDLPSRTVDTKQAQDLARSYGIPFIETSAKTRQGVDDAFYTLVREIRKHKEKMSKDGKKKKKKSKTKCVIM
Chain of GDP-bound NRAS wild-type protein (P01111 whole entry): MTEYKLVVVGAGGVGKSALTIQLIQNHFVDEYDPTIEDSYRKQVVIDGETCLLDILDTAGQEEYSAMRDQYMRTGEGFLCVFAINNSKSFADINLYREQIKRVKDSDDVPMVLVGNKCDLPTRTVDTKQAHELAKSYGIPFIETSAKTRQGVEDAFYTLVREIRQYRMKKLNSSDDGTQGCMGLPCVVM
Chain of HRAS wild-type protein (P01112 whole entry): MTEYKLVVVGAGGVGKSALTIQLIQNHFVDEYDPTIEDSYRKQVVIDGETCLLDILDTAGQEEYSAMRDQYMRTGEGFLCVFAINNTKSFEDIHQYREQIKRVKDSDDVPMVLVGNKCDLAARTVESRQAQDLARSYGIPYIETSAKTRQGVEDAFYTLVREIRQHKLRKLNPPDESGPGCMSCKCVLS

| Compound | IC50 [1] [nM] | Kd [3] [nM] | HRAS /KRAS [2] | NRAS /KRAS [4] |
| --- | --- | --- | --- | --- |
| CCO[C@@H]1C[C@H]2C(=O)NC3(CC(C)(C)C3)C(=O)N(C)[C@@H](C3CCCC3)C(=O)N(C)[C@H](C(=O)N(C)CC)CC(=O)N(C)[C@@H](CC(C)C)C(=O)N[C@@H]([C@@H](C)CC)C(=O)N(C)CC(=O)N(C)[C@H]3C/C=C\CCN(C3=O)[C@@H](Cc3ccc(C(F)F)cc3)C(=O)N(C)CC(=O)N[C@@H](CCc3cc(C)c(C(F)F)c(Cl)c3)C(=O)N2C1 [PP3146] | 41.8 | 1.4 | A (a compound having 10 or more and less than 20 is denoted as A) | A (a compound having 10 or more and less than 20 is denoted as A) |
| CCO[C@@H]1C[C@H]2C(=O)NC3(CC(C)(C)C3)C(=O)N(C)[C@@H](C3CCCC3)C(=O)N(C)[C@H](C(=O)N(C)CC)CC(=O)N(C)[C@@H](CC(C)C)C(=O)N[C@@H]([C@@H](C)CC)C(=O)N(C)CC(=O)N(C)[C@H]3C/C=C\CCN(C3=O)[C@@H](Cc3ccc(C(F)F)cc3)C(=O)N(C)CC(=O)N[C@@H](CCc3cc(C)c(C4CC4)c(C)c3)C(=O)N2C1 [PP3148] | 75.9 | 2.4 | A (a compound having 10 or more and less than 20 is denoted as A) | A (a compound having 10 or more and less than 20 is denoted as A) |
| CCO[C@@H]1C[C@H]2C(=O)NC3(CC(C)(C)C3)C(=O)N(C)[C@@H](C3CCCC3)C(=O)N(C)[C@H](C(=O)N(C)CC)CC(=O)N(C)[C@@H](CC(C)C)C(=O)N[C@@H]([C@@H](C)CC)C(=O)N(C)CC(=O)N(C)[C@H]3C/C=C\CCN(C3=O)[C@@H](Cc3ccc(C(F)F)cc3)C(=O)N(C)CC(=O)N[C@@H](CCc3cc(F)c4c(c3)OCC4)C(=O)N2C1 [PP3150] | 191 | 2.9 | A (a compound having 10 or more and less than 20 is denoted as A) | A (a compound having 10 or more and less than 20 is denoted as A) |
| CCO[C@@H]1C[C@H]2C(=O)NC3(CC(C)(C)C3)C(=O)N(C)[C@@H](C3CCCC3)C(=O)N(C)[C@H](C(=O)N(C)CC)CC(=O)N(C)[C@@H](CC(C)C)C(=O)N[C@@H]([C@@H](C)CC)C(=O)N(C)CC(=O)N(C)[C@H]3C/C=C\CCN(C3=O)[C@@H](Cc3ccc(C(F)F)cc3)C(=O)N(C)CC(=O)N[C@@H](CCc3ccc(C(F)(F)F)c(C4CC4)c3)C(=O)N2C1 [PP3151] | 18.6 | 0.23 | A (a compound having 10 or more and less than 20 is denoted as A) | A (a compound having 10 or more and less than 20 is denoted as A) |
| CCO[C@@H]1C[C@H]2C(=O)NC3(CC(C)(C)C3)C(=O)N(C)[C@@H](C3CCCC3)C(=O)N(C)[C@H](C(=O)N(C)CC)CC(=O)N(C)[C@@H](CC(C)C)C(=O)N[C@@H]([C@@H](C)CC)C(=O)N(C)CC(=O)N(C)[C@H]3C/C=C\CCN(C3=O)[C@@H](Cc3ccc(C(F)F)cc3)C(=O)N(C)CC(=O)N[C@@H](CCc3ccc4c(c3)CCC4(F)F)C(=O)N2C1 [PP3152] | 620 | 2 | A (a compound having 10 or more and less than 20 is denoted as A) | AA (a compound having 20 or more is denoted as AA) |
| CCO[C@@H]1C[C@H]2C(=O)NC3(CC(C)(C)C3)C(=O)N(C)[C@@H](C3CCCC3)C(=O)N(C)[C@H](C(=O)N(C)CC)CC(=O)N(C)[C@@H](CC(C)C)C(=O)N[C@@H]([C@@H](C)CC)C(=O)N(C)CC(=O)N(C)[C@H]3C/C=C\CCN(C3=O)[C@@H](Cc3ccc(C(F)F)cc3)C(=O)N(C)CC(=O)N[C@@H](CCc3ccc(C4CC4)c(F)c3)C(=O)N2C1 [PP3154] | 26.2 | 0.53 | A (a compound having 10 or more and less than 20 is denoted as A) | A (a compound having 10 or more and less than 20 is denoted as A) |
| CCO[C@@H]1C[C@H]2C(=O)NC3(CC(C)(C)C3)C(=O)N(C)[C@@H](C3CCCC3)C(=O)N(C)[C@H](C(=O)N(C)CC)CC(=O)N(C)[C@@H](CC(C)C)C(=O)N[C@@H]([C@@H](C)CC)C(=O)N(C)CC(=O)N(C)[C@H]3C/C=C\CCN(C3=O)[C@@H](Cc3ccc(C(F)F)cc3)C(=O)N(C)CC(=O)N[C@@H](CCc3ccc(C4CC4)c(C)c3)C(=O)N2C1 [PP3156] | 63.8 | 2 | A (a compound having 10 or more and less than 20 is denoted as A) | A (a compound having 10 or more and less than 20 is denoted as A) |
| CCO[C@@H]1C[C@H]2C(=O)NC3(CC(C)(C)C3)C(=O)N(C)[C@@H](C3CCCC3)C(=O)N(C)[C@H](C(=O)N(C)CC)CC(=O)N(C)[C@@H](CC(C)C)C(=O)N[C@@H]([C@@H](C)CC)C(=O)N(C)CC(=O)N(C)[C@H]3C/C=C\CCN(C3=O)[C@@H](Cc3ccc(C(F)F)cc3)C(=O)N(C)CC(=O)N[C@@H](CCc3ccc(CC)c(F)c3)C(=O)N2C1 [PP3157] | 88.5 | 2.1 | A (a compound having 10 or more and less than 20 is denoted as A) | A (a compound having 10 or more and less than 20 is denoted as A) |
| CCO[C@@H]1C[C@H]2C(=O)NC3(CC(C)(C)C3)C(=O)N(C)[C@@H](C3CCCC3)C(=O)N(C)[C@H](C(=O)N(C)CC)CC(=O)N(C)[C@@H]([C@@H](C)OC)C(=O)N[C@@H]([C@@H](C)CC)C(=O)N(C)CC(=O)N(C)[C@H]3C/C=C\CCN(C3=O)[C@@H](Cc3ccc(C(F)(F)F)cc3)C(=O)N(C)CC(=O)N[C@@H](CCc3cc(F)c(C(F)(F)F)c(F)c3)C(=O)N2C1 [PP3160] | 13.2 | 0.07 | A (a compound having 10 or more and less than 20 is denoted as A) | A (a compound having 10 or more and less than 20 is denoted as A) |

Further compounds by falling IC50 [1], results first:

| IC50 [1] [nM] | Kd [3] [nM] | Compound | HRAS /KRAS [2] | NRAS /KRAS [4] |
| --- | --- | --- | --- | --- |
| 62.5 | 0.64 | CCO[C@@H]1C[C@H]2C(=O)NC3(CC(C)(C)C3)C(=O)N(C)[C@@H](C3CCCC3)C(=O)N(C)[C@H](C(=O)N(C)CC)CC(=O)N(C)[C@@H](CC(C)C)C(=O)N[C@@H]([C@@H](C)CC)C(=O)N(C)CC(=O)N(C)[C@H]3C/C=C\CCN(C3=O)[C@@H](Cc3ccc(C(F)F)cc3)C(=O)N(C)CC(=O)N[C@@H](CCc3ccc(C4CC4)c(Cl)c3)C(=O)N2C1 [PP3155] | A (a compound having 10 or more and less than 20 is denoted as A) | A (a compound having 10 or more and less than 20 is denoted as A) |
| 56.4 | 0.84 | CCO[C@@H]1C[C@H]2C(=O)NC3(CC(C)(C)C3)C(=O)N(C)[C@@H](C3CCCC3)C(=O)N(C)[C@H](C(=O)N(C)CC)CC(=O)N(C)[C@@H](CC(C)C)C(=O)N[C@@H]([C@@H](C)CC)C(=O)N(C)CC(=O)N(C)[C@H]3C/C=C\CCN(C3=O)[C@@H](Cc3ccc(C(F)F)cc3)C(=O)N(C)CC(=O)N[C@@H](CCc3cc(F)c4c(c3)CCC4)C(=O)N2C1 [PP3149] | A (a compound having 10 or more and less than 20 is denoted as A) | A (a compound having 10 or more and less than 20 is denoted as A) |
| 54.6 | 0.41 | CCO[C@@H]1C[C@H]2C(=O)NC3(CC(C)(C)C3)C(=O)N(C)[C@@H](C3CCCC3)C(=O)N(C)[C@H](C(=O)N(C)CC)CC(=O)N(C)[C@@H](CC(C)C)C(=O)N[C@@H]([C@@H](C)CC)C(=O)N(C)CC(=O)N(C)[C@H]3C/C=C\CCN(C3=O)[C@@H](Cc3ccc(C(F)F)cc3)C(=O)N(C)CC(=O)N[C@@H](CCc3cc(F)c(C(F)F)c(OC)c3)C(=O)N2C1 [PP3147] | A (a compound having 10 or more and less than 20 is denoted as A) | A (a compound having 10 or more and less than 20 is denoted as A) |
| 50.1 | 0.6 | CCO[C@@H]1C[C@H]2C(=O)NC3(CC(C)(C)C3)C(=O)N(C)[C@@H](C3CCCC3)C(=O)N(C)[C@H](C(=O)N(C)CC)CC(=O)N(C)[C@@H]([C@H](C)OC)C(=O)N[C@@H]([C@@H](C)CC)C(=O)N(C3CC3)CC(=O)N(C)[C@H]3C/C=C\CCN(C3=O)[C@@H](Cc3ccc(C)cc3)C(=O)N(C)CC(=O)N[C@@H](CCc3ccc(C(F)(F)F)c(Cl)c3)C(=O)N2C1 [PP3159] | A (a compound having 10 or more and less than 20 is denoted as A) | A (a compound having 10 or more and less than 20 is denoted as A) |
| 28.7 | 1.4 | CCO[C@@H]1C[C@H]2C(=O)NC3(CC(C)(C)C3)C(=O)N(C)[C@@H](C3CCCC3)C(=O)N(C)[C@H](C(=O)N(C)CC)CC(=O)N(C)[C@@H](CC(C)C)C(=O)N[C@@H]([C@@H](C)CC)C(=O)N(C)CC(=O)N(C)[C@H]3C/C=C\CCN(C3=O)[C@@H](Cc3ccc(C(F)F)cc3)C(=O)N(C)CC(=O)N[C@@H](CCc3ccc(C4CC4)c(OC)c3)C(=O)N2C1 [PP3153] | A (a compound having 10 or more and less than 20 is denoted as A) | A (a compound having 10 or more and less than 20 is denoted as A) |
| 9.7 | 0.076 | CCO[C@@H]1C[C@H]2C(=O)NC3(CC(C)(C)C3)C(=O)N(C)[C@@H](C3CCCC3)C(=O)N(C)[C@H](C(=O)N(C)CC)CC(=O)N(C)[C@@H]([C@@H](C)OC)C(=O)N[C@@H]([C@@H](C)CC)C(=O)N(C)CC(=O)N(C)[C@H]3C/C=C\CCN(C3=O)[C@@H](Cc3ccc(C(F)(F)F)cc3)C(=O)N(C)CC(=O)N[C@@H](CCc3ccc(C(F)(F)F)c(OC)c3)C(=O)N2C1 [PP3158] | A (a compound having 10 or more and less than 20 is denoted as A) | A (a compound having 10 or more and less than 20 is denoted as A) |
